ChEMBL document CHEMBL1201862, “PubChem BioAssay data set” (2004)
Where “and” joins values, the source holds several entries; their conditions need not be identical. Equal values may be shown once.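 Values below derive from 48-hour exposures of cells grown in 96-well plates, with endpoints linearly interpolated between the two concentrations bracketing the appropriate inhibition level. GI50 marks 50% less growth.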 Calls of active or inactive are those of the source. Rule as the data show it: active = GI50 up to about 1.1 µM and inactive = higher.

What was measured:
Assay in all cases: NCI-60 cell line screen, 48 h
[1] = system: SF-295
[2] = system: 786-0
[3] = system: SR
[4] = system: LOX IMVI
[5] = system: A498
[6] = system: MCF7
[7] = system: HCC 2998
[8] = system: HCT-116
[9] = system: NCI-H522
[10] = system: NCI-H23
[11] = system: T47D
[12] = system: CAKI-1
[13] = system: OVCAR-3
[14] = system: MDA-N
[15] = system: OVCAR-4
[16] = system: CCRF-CEM
[17] = system: HOP-62
[18] = system: MDA-MB-231
[19] = system: Hs-578T
[20] = system: SF-268
[21] = system: SW-620
[22] = system: K562
[23] = system: RPMI-8226
[24] = system: RXF 393
[25] = system: IGROV-1
[26] = system: ACHN
[27] = system: Malme-3M
[28] = system: MDA-MB-435
[29] = system: NCI-H460
[30] = system: U-251
[31] = system: HCT-15
[32] = system: NCI-H226
[33] = system: SK-MEL-28
[34] = system: COLO 205
[35] = system: SN12C
[36] = system: OVCAR-8
[37] = system: HT-29
[38] = system: NCI/ADR-RES
[39] = system: HOP-92
[40] = system: SK-MEL-2
[41] = system: EKVX
[42] = system: TK-10
[43] = system: MOLT-4
[44] = system: OVCAR-5
[45] = system: SK-OV-3
[46] = system: M14
[47] = system: SF-539
[48] = system: KM12
[49] = system: PC-3
[50] = system: UO-31
[51] = system: UACC-257
[52] = system: SK-MEL-5
[53] = system: HL-60
[54] = system: DU-145
[55] = system: A549
[56] = system: SNB-19
[57] = system: UACC-62

## COc1ccc(COC(=O)NCC(=O)NC(C)C(=O)NC(Cc2ccccc2)C(=O)OCc2ccccc2)cc1 (centres undefined)
[1]
  GI50: 21.1 µM (inactive) and 22.3 µM (inactive)
[2]
  GI50: 20 µM (inactive) and 29.2 µM (inactive)
[3]
  GI50: 28.3 µM (inactive) and 25 µM (inactive)
[4]
  GI50: 28.1 µM (inactive) and 19.4 µM (inactive)
[5]
  GI50: 38.8 µM (inactive) and 22.5 µM (inactive)
[6]
  GI50: 17 µM (inactive)
[7]
  GI50: 20.9 µM (inactive) and 14.8 µM (inactive)
[8]
  GI50: 33.5 µM (inactive) and 42.5 µM (inactive)
[9]
  GI50: 12.2 µM (inactive) and 16.5 µM (inactive)
[10]
  GI50: 37.9 µM (inactive)
[11]
  GI50: 19.8 µM (inactive) and 30.1 µM (inactive)
[12]
  GI50: 20 µM (inactive) and 21.1 µM (inactive)
[13]
  GI50: 22.1 µM (inactive) and 24.4 µM (inactive)
[14]
  GI50: 25.9 µM (inactive) and 27.4 µM (inactive)
[15]
  GI50: 34 µM (inactive) and 22.3 µM (inactive)
[16]
  GI50: 21.5 µM (inactive) and 13.6 µM (inactive)
[17]
  GI50: 24.7 µM (inactive) and 22.3 µM (inactive)
[18]
  GI50: 20 µM (inactive) and 25.6 µM (inactive)
[19]
  GI50: 23.9 µM (inactive) and 25.5 µM (inactive)
[20]
  GI50: 24.3 µM (inactive) and 35 µM (inactive)
[21]
  GI50: 33.3 µM (inactive) and 45.8 µM (inactive)
[22]
  GI50: 26.5 µM (inactive) and 38.7 µM (inactive)
[23]
  GI50: 29.6 µM (inactive) and 26.7 µM (inactive)
[24]
  GI50: 16.1 µM (inactive)
[25]
  GI50: 45.2 µM (inactive) and 29.8 µM (inactive)
[26]
  GI50: 21.3 µM (inactive) and 19.8 µM (inactive)
[27]
  GI50: 19.2 µM (inactive) and 36.6 µM (inactive)
[28]
  GI50: 27.6 µM (inactive) and 22.1 µM (inactive)
[29]
  GI50: 10.8 µM (inactive)
[30]
  GI50: 22.2 µM (inactive) and 21.9 µM (inactive)
[31]
  GI50: > 100 µM and 61.2 µM
[32]
  GI50: 27.3 µM (inactive) and 34.9 µM (inactive)
[33]
  GI50: 18.9 µM (inactive) and 19.4 µM (inactive)
[34]
  GI50: 24.4 µM (inactive) and 24.2 µM (inactive)
[35]
  GI50: 24.2 µM (inactive) and 31.5 µM (inactive)
[36]
  GI50: > 100 µM (inactive) and 74.5 µM (inactive)
[37]
  GI50: 26.4 µM (inactive) and 18.4 µM (inactive)
[38]
  GI50: > 100 µM (inactive) and 67.1 µM (inactive)

## Cc1nc(=O)n2c(c1C(=O)Nc1ccc(Cl)cc1)NCC2
[39]
  GI50: 47.8 µM (inactive)

## Cc1cc(OCc2nn(CN3CCN(C)CC3)c(=S)n2/N=C/c2ccc(-c3ccc(Cl)cc3Cl)o2)ccc1Cl
[40]
  GI50: > 100 µM (inactive)
[1]
  GI50: 84.1 µM (inactive)
[2]
  GI50: 90.2 µM (inactive)
[41]
  GI50: > 100 µM (inactive)
[4]
  GI50: 80.7 µM (inactive)
[5]
  GI50: 36.3 µM (inactive)
[6]
  GI50: 39.4 µM (inactive)
[42]
  GI50: 75.2 µM (inactive)
[43]
  GI50: 67.8 µM (inactive)
[7]
  GI50: 16.1 µM (inactive)
[44]
  GI50: > 100 µM (inactive)
[8]
  GI50: > 100 µM (inactive)
[9]
  GI50: 24.5 µM (inactive)
[45]
  GI50: > 100 µM (inactive)
[46]
  GI50: 33.7 µM (inactive)
[10]
  GI50: 39.6 µM (inactive)
[47]
  GI50: > 100 µM (inactive)
[39]
  GI50: 21 µM (inactive)
[11]
  GI50: 38 µM (inactive)
[48]
  GI50: 20.3 µM (inactive)
[49]
  GI50: 85.3 µM (inactive)
[12]
  GI50: 47.9 µM (inactive)
[13]
  GI50: 80 µM (inactive)
[14]
  GI50: 39.3 µM (inactive)
[15]
  GI50: 27 µM (inactive)
[16]
  GI50: 35.3 µM (inactive)
[17]
  GI50: 39.3 µM (inactive)
[50]
  GI50: 57.1 µM (inactive)
[18]
  GI50: 97.5 µM (inactive)
[19]
  GI50: 39.6 µM (inactive)
[20]
  GI50: 33.1 µM (inactive)
[21]
  GI50: 15.7 µM (inactive)
[22]
  GI50: 34.6 µM (inactive)
[23]
  GI50: 17.1 µM (inactive)
[24]
  GI50: 17.2 µM (inactive)
[25]
  GI50: > 100 µM (inactive)
[51]
  GI50: 53.5 µM (inactive)
[26]
  GI50: > 100 µM (inactive)
[28]
  GI50: 29.5 µM (inactive)
[29]
  GI50: 67.8 µM (inactive)
[30]
  GI50: > 100 µM (inactive)
[31]
  GI50: 28.5 µM
[32]
  GI50: 40.4 µM (inactive)
[33]
  GI50: 33.1 µM (inactive)
[36]
  GI50: 44 µM (inactive)
[37]
  GI50: 28.2 µM (inactive)
[52]
  GI50: 44.5 µM (inactive)
[53]
  GI50: 22.3 µM (inactive)
[54]
  GI50: > 100 µM (inactive)
[38]
  GI50: 38 µM (inactive)

## Nc1ncn(C2OC(CO)C(O)C2O)c(=O)n1 (centres undefined)
[43]
  GI50: 735 nM (active) and 1.22 µM (inactive)

## Cc1[nH]n(-c2nc(-c3ccccc3)cc(=O)[nH]2)c(=O)c1CCO
[40]
  GI50: > 100 µM (inactive)
[1]
  GI50: > 100 µM (inactive)
[2]
  GI50: > 100 µM (inactive)
[41]
  GI50: > 100 µM (inactive)
[4]
  GI50: > 100 µM (inactive)
[6]
  GI50: > 100 µM (inactive)
[42]
  GI50: > 100 µM (inactive)
[43]
  GI50: 63.5 µM (inactive)
[7]
  GI50: > 100 µM (inactive)
[44]
  GI50: > 100 µM (inactive)
[8]
  GI50: > 100 µM (inactive)
[45]
  GI50: > 100 µM (inactive)
[46]
  GI50: > 100 µM (inactive)
[10]
  GI50: > 100 µM (inactive)
[47]
  GI50: > 100 µM (inactive)
[39]
  GI50: > 100 µM (inactive)
[55]
  GI50: > 100 µM (inactive)
[11]
  GI50: > 100 µM (inactive)
[56]
  GI50: > 100 µM (inactive)
[48]
  GI50: > 100 µM (inactive)
[49]
  GI50: > 100 µM (inactive)
[12]
  GI50: > 100 µM (inactive)
[13]
  GI50: > 100 µM (inactive)
[14]
  GI50: > 100 µM (inactive)
[15]
  GI50: > 100 µM (inactive)
[57]
  GI50: > 100 µM (inactive)
[16]
  GI50: > 100 µM (inactive)
[17]
  GI50: > 100 µM (inactive)
[50]
  GI50: > 100 µM (inactive)
[18]
  GI50: > 100 µM (inactive)
[19]
  GI50: > 100 µM (inactive)
[20]
  GI50: > 100 µM (inactive)
[21]
  GI50: > 100 µM (inactive)
[22]
  GI50: > 100 µM (inactive)
[23]
  GI50: > 100 µM (inactive)
[24]
  GI50: > 100 µM (inactive)
[25]
  GI50: > 100 µM (inactive)
[51]
  GI50: > 100 µM (inactive)
[26]
  GI50: > 100 µM (inactive)
[27]
  GI50: > 100 µM (inactive)
[28]
  GI50: > 100 µM (inactive)
[29]
  GI50: > 100 µM (inactive)
[30]
  GI50: > 100 µM (inactive)
[31]
  GI50: > 100 µM
[32]
  GI50: > 100 µM (inactive)
[33]
  GI50: > 100 µM (inactive)
[34]
  GI50: > 100 µM (inactive)
[35]
  GI50: > 100 µM (inactive)
[36]
  GI50: > 100 µM (inactive)
[37]
  GI50: > 100 µM (inactive)
[52]
  GI50: > 100 µM (inactive)
[53]
  GI50: > 100 µM (inactive)
[54]
  GI50: > 100 µM (inactive)
[38]
  GI50: 71.1 µM (inactive)
